Experimental data from article PMC10041525, “New Dual Inhibitors of Bacterial Topoisomerases with Broad-Spectrum Antibacterial Activity and In Vivo Efficacy against Vancomycin-Intermediate Staphylococcus aureus” (Journal of Medicinal Chemistry, 2023).
Where “and” joins values, the source holds several entries; their conditions need not be identical. Identical values can stand only once. Like-named read-outs stand apart in the source and are kept apart here.

Tests used:
[1] = tested on: 3 sensitive and 7 MDR A. baumannii clinical isolates; assay: MIC, Hungarian clinical isolates and controls (384-well); format: cell-based
topo IV from E. coli = target: T1, topo IV from E. coli (Escherichia coli, UniProt P20083); assay: relaxation HTS plate assay; format: biochemical; settings: IC50
T1 construct: purchased Inspiralis
Protocol: (§1) All compounds were tested for their inhibitory activities against DNA gyrase and topo IV from E. coli in supercoiling and relaxation high-throughput plate assays, respectively. Our new series of inhibitors were then tested against a panel of Gram-positive and Gram-negative bacteria.
(§2) Seven concentrations of the inhibitors were used to determine IC50 values which were then calculated with GraphPad Prism 6.0 software. Three independent measurements were performed to determine IC50 values, and mean values are reported as the final result.

P. aeruginosa ATCC 27853 = assay: MIC broth microdilution (CLSI); format: cell-based; settings: Pseudomonas aeruginosa, ATCC27853; read-out: MIC
Protocol: (§3) MICs (Tables 1 and S1–S3) were determined with a standard serial broth microdilution technique according to Clinical and Laboratory Standards Institute (CLSI) guidelines.[45] Cation-adjusted Mueller Hinton broth 2 (MHBII) was used for bacterial growth under standard laboratory conditions and for antimicrobial susceptibility tests. MHBII broth was prepared by dissolving 22 g of MHBII powder [containing beef extract (3 g), acid hydrolysate of casein (17.5 g), and starch (1.5 g); Becton Dickinson and Co.] in 1 L of water. To prepare MHBII agar, 14 g of agar (Bacto; Molar Chemicals) was added to 1 L of broth.
(§4) Bacterial strains were inoculated onto MHBII agar plates and grown overnight at 37 °C. Next, three individual colonies from each strain were inoculated into 1 mL of MHBII medium and propagated at 37 °C overnight, with agitation at 250 rpm. For Enterococcus sp., the cells were plated in brain–heart infusion [(BHI) medium] agar plates, and BHI broth was used to determine the MICs. […] The highest final DMSO concentration in the experiments was 0.64% (in the case of the 64 μg/mL concentration of the inhibitor). Following the dilutions, each well was seeded with 5 × 10^4 bacterial cells (in 100 μL final volume). Each measurement was performed in three parallel replicates, and to avoid possible edge effects in the microwell plates, the outside rows (A, H) were filled with sterile medium. Following the inoculations, the plates were covered with the lids and wrapped in polyethylene plastic bags, to minimize evaporation but to allow O2 transfer. The plates were incubated at 37 °C under continuous shaking at 150 rpm for 18 h. After incubation, the OD600 of each well was measured using a microplate reader (Synergy 2; Biotek). The MICs were defined as the antibiotic concentrations which inhibited the growth of the bacterial cultures; that is, the drug concentration where the average OD600 increment of the three technical replicates was below 1.5-fold the background OD increment.

[2] = tested on: S. aureus (MRSA) ATCC 43300; assay: MIC broth microdilution (CLSI); format: cell-based; settings: Staphylococcus aureus
Protocol: as §3, §4

E. coli ATCC 25922 = assay: MIC broth microdilution (CLSI); format: cell-based; settings: Escherichia coli, ATCC25922; read-out: MIC
Protocol: as §3, §4

[3] = tested on: Enterobacter cloacae spp. cloacae ATCC 13047; assay: MIC broth microdilution (CLSI); format: cell-based; settings: Enterobacter cloacae, ATCC13047; read-out: MIC
Protocol: as §3, §4

K. pneumoniae ATCC 10031 = assay: MIC broth microdilution (CLSI); format: cell-based; settings: Klebsiella pneumoniae, ATCC10031; read-out: MIC
Protocol: as §3, §4

A. baumannii ATCC 17978 = assay: MIC broth microdilution (CLSI); format: cell-based; settings: Acinetobacter baumannii, ATCC17978
Protocol: (§5) Cation-adjusted Mueller Hinton broth 2 (MHBII) was used for bacterial growth under standard laboratory conditions and for antimicrobial susceptibility tests. MHBII broth was prepared by dissolving 22 g of MHBII powder [containing beef extract (3 g), acid hydrolysate of casein (17.5 g), and starch (1.5 g); Becton Dickinson and Co.] in 1 L of water. To prepare MHBII agar, 14 g of agar (Bacto; Molar Chemicals) was added to 1 L of broth.
(§6) Bacterial strains were inoculated onto MHBII agar plates and grown overnight at 37 °C. Next, three individual colonies from each strain were inoculated into 1 mL of MHBII medium and propagated at 37 °C overnight, with agitation at 250 rpm. For Enterococcus sp., the cells were plated in brain–heart infusion [(BHI) medium] agar plates, and BHI broth was used to determine the MICs. […] Following the dilutions, each well was seeded with 5 × 10^4 bacterial cells (in 100 μL final volume). Each measurement was performed in three parallel replicates, and to avoid possible edge effects in the microwell plates, the outside rows (A, H) were filled with sterile medium. Following the inoculations, the plates were covered with the lids and wrapped in polyethylene plastic bags, to minimize evaporation but to allow O2 transfer. […] After incubation, the OD600 of each well was measured using a microplate reader (Synergy 2; Biotek).

S. aureus ATCC 29213 = assay: MIC broth microdilution (CLSI); format: cell-based; settings: Staphylococcus aureus, ATCC29213
Protocol: as §5, §6

[4] = tested on: Enterococcus faecalis ATCC 29212; assay: MIC broth microdilution (CLSI); format: cell-based, E. faecalis; settings: Enterococcus faecalis, ATCC29212; read-out: MIC
Protocol: as §3, §4

DNA gyrase from E. coli = target: T2, DNA gyrase from E. coli (Escherichia coli, UniProt P0AES6); assay: supercoiling HTS plate assay; format: biochemical; settings: IC50 [nM] E. coli DNA gyrase
T2 construct: purchased Inspiralis
Protocol: as §1, §2

[5] = tested on: Chinese hamster ovary K1 cells; assay: in vitro micronucleus test; settings: without S9, 1 µM
[6] = tested on: S. aureus ATCC 700699 (VISA); format: in vivo, female CD-1 mice
Protocol: The neutropenic mouse thigh infection model study was performed by NeoSome Life Sciences, LLC (Lexington, MA, USA) according to NeoSome Institutional Animal Care and Use Committee (IACUC) policies and guidelines as well as NIH’s Office of Laboratory Animal Welfare (OLAW) standards.
Neutropenic mouse thigh infection experiments were performed on female CD-1 mice (Charles River Laboratories, USA). To induce neutropenia, mice received two doses of cyclophosphamide on days −4 and −1 with 150 and 100 mg/kg delivered intraperitoneally (IP), respectively. The inoculum of the testing strain, S. aureus ATCC 700699-P1 (VISA), was prepared from overnight agar plate cultures. To prepare bacterial inoculums, a portion of the plate was resuspended in sterile saline and adjusted to an OD of 0.12 at 625 nm. Next, the resulted bacterial suspension was further diluted to reach an infecting inoculum of 6.0 × 10^5 cfu per each mouse. Plate counts of the inoculum were also performed in each case to confirm the inoculum concentration, and the actual inoculum size was 7.25 × 10^5 cfu/mouse. Mice were inoculated with 100 μL of the prepared bacterial suspension via an intramuscular injection into the right rear thigh. […] The test agent was then dosed via IV administration, to ensure optimal distribution, at 2, 10, and 18 h post-infection. Beginning at 2 h, post-infection mice were dosed with either test article or positive control antibiotic. Mice receiving test agents were dosed intravenously at 10 mL/kg. Linezolid was delivered as a SC dose to ensure optimized exposure, distribution, and efficacy. Four animals were dosed per group. One group of four mice was euthanized at the initiation of therapy (t = 2 h) and cfus determined. All remaining mice were euthanized at 26 h post-infection. At termination, thighs were aseptically excised, weighed, and homogenized to a uniform consistency in 2 mL of sterile saline. The homogenate was serially diluted and plated on bacterial growth media. The cfus were enumerated after overnight incubation.

T1 sequence (P0AFI2 whole entry): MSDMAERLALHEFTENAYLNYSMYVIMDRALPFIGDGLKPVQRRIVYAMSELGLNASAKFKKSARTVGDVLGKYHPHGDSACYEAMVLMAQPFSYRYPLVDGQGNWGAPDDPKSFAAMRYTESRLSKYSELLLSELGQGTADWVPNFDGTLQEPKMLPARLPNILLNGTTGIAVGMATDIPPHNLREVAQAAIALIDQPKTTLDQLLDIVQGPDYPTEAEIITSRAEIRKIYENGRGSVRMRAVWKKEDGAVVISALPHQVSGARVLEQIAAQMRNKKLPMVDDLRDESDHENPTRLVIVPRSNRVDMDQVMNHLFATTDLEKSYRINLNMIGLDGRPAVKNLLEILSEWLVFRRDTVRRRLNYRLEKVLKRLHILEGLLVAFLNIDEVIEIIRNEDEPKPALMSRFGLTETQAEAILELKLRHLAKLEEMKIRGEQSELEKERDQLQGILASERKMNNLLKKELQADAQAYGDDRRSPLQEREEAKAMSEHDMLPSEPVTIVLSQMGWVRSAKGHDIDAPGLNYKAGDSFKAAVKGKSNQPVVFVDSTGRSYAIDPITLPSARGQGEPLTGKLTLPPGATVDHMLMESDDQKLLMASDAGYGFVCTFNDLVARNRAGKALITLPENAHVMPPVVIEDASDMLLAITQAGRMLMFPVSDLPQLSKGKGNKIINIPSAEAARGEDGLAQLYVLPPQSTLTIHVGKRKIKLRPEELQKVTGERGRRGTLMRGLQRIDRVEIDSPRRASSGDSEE
T1 sequence (P20083 whole entry): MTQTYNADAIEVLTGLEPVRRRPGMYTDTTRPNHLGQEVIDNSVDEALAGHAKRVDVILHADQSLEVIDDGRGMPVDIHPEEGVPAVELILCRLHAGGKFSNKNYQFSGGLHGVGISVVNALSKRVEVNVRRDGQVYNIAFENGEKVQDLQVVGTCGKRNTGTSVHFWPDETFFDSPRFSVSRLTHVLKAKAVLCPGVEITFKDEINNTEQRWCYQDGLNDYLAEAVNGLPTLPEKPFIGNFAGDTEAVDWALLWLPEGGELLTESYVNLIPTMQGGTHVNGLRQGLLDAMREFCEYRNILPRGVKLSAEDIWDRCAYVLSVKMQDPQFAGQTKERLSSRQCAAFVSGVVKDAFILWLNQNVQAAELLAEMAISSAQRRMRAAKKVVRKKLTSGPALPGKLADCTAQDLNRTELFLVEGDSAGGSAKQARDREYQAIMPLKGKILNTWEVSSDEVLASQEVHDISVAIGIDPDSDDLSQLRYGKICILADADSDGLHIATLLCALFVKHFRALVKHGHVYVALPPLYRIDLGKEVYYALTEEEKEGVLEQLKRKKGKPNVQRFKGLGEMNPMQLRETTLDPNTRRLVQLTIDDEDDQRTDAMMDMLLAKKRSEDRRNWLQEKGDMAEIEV

What does the source list for `NCC[C@H](O)C(=O)N[C@@H]1C[C@H](N)[C@@H](O[C@H]2O[C@H](CN)[C@@H](O)[C@H](O)[C@H]2O)[C@H](O)[C@H]1O[C@H]1O[C@H](CO)[C@@H](O)[C@H](N)[C@H]1O` [Amikacin, amikacin]?
Cumulative % at MIC ([1]; n=10, MIC 2 µg/mL): 10%; Cumulative % at MIC ([1]; n=10, MIC 256 µg/mL): 100%

For `COCCCNc1cc(C(=O)O)cc2sc(NC(=O)c3[nH]c(C)c(Cl)c3Cl)nc12.N` [8c, 2-(3,4-Dichloro-5-methyl-1H-pyrrole-2-carboxamido)-4-((3-methoxypropyl)amino)benzo[d]thiazole-6-carboxylic Acid], which IC50 (topo IV from E. coli) is on record?
The IC50 was 0.19 ± 0.006 µM.

And the MIC (P. aeruginosa ATCC 27853)?
The MIC was 8 mg/L.

What about the MIC ([2]; read-out: MIC) of the same molecule?
The MIC was less than 0.0312 µg/mL.

What about the MIC ([2]; read-out: MIC [µg/mL](S. aureus MRSA ATCC4330)) of the same molecule?
The MIC was less than 0.0312 µg/mL.

What about the MIC (E. coli ATCC 25922) of the same molecule?
The MIC was 8 mg/L.

What about the MIC [3] of the same molecule?
The MIC was greater than 64 mg/L.

What about the MIC (K. pneumoniae ATCC 10031) of the same molecule?
The MIC was 2 mg/L.

And the MIC (A. baumannii ATCC 17978; read-out: MIC)?
Its MIC is 2 µg/mL.

And the MIC (A. baumannii ATCC 17978; read-out: MIC [µg/mL] (A. baumannii ATCC 17978))?
The MIC was 2 µg/mL.

And the MIC (S. aureus ATCC 29213; read-out: MIC)?
Its MIC is less than 0.0312 µg/mL.

What about the MIC (S. aureus ATCC 29213; read-out: MIC [µg/mL](S. aureus ATCC 29213)) of the same molecule?
The MIC was less than 0.0312 µg/mL.

What about the MIC [4] of the same molecule?
Its MIC is greater than 0.0312 mg/L.

And the IC50 (DNA gyrase from E. coli)?
The IC50 was 15 ± 5 nM.

`CO[C@@]12[C@H](COC(N)=O)C3=C(C(=O)C(C)=C(N)C3=O)N1C[C@@H]1N[C@@H]12` [Mitomycin C] was tested. Which No. binucleate cells [5] did it give?
Its No. binucleate cells is 920.

Which results are given for trimethoprim/sulfamethoxazole?
Cumulative % at MIC ([1]; n=10, MIC […] µg/mL): 20%; Cumulative % at MIC ([1]; n=10, MIC 32 µg/mL): 70%; Cumulative % at MIC ([1]; n=10, MIC 64 µg/mL): 100%

How did the “Cumulative % at MIC” value ([1]; n=10, MIC 0.5 µg/mL) turn out when imipenem/relebactame was run?
Its value is 20%.

What about the “Cumulative % at MIC” value ([1]; n=10, MIC 2 µg/mL) of the same molecule?
The value was 30%.

And the “Cumulative % at MIC” value ([1]; n=10, MIC 64 µg/mL)?
Its value is 70%.

And the “Cumulative % at MIC” value ([1]; n=10, MIC 128 µg/mL)?
The value was 90%.

And the “Cumulative % at MIC” value ([1]; n=10, MIC 256 µg/mL)?
Its value is 100%.

Which “Cumulative % at MIC” value ([1]; n=10, MIC 1 µg/mL) does the source give for `NC[C@H]1O[C@H](O[C@H]2[C@H](O)[C@@H](O[C@H]3O[C@H](CO)[C@@H](O)[C@H](N)[C@H]3O)[C@H](N)C[C@@H]2N)[C@H](N)C[C@@H]1O` [Tobramycin, tobramycin] here?
The value was 10%.

And the “Cumulative % at MIC” value ([1]; n=10, MIC 2 µg/mL)?
Its value is 20%.

What about the “Cumulative % at MIC” value ([1]; n=10, MIC […] µg/mL) of the same molecule?
Its value is 70%.

And the “Cumulative % at MIC” value ([1]; n=10, MIC 256 µg/mL)?
Its value is 100%.

And the “Cumulative % at MIC” value ([1]; n=10, MIC […] µg/mL)?
The value was 60%.

`CC(=O)NC[C@H]1CN(c2ccc(N3CCOCC3)c(F)c2)C(=O)O1` [linezolid] was tested. Which “Change in log10CFU/gr of thigh from 2 hour control” value ([6]; 50 mg/kg BID/SC) did it give?
Its value is -0.61.

And the “Average log10CFU/gr of thigh” value ([6]; 50 mg/kg BID/SC, 26 h)?
Its value is 5.69.

And the “reduction compared to 2 hour infection controls” value ([6]; 50 mg/kg SC (BID))?
Its value is 0.61 log10 cfu.

And the “reduction compared to 26 hour infection controls” value ([6]; 50 mg/kg SC (BID))?
The value was 2.41 log10 cfu.

And the “CFU/ g of thigh, single animals” value ([6]; linezolid group)?
The value was 7.27E+05 and 7.86E+05 and 5.42E+05 and 1.84E+05.

What about the “log CFU, single animals” value ([6]; linezolid group) of the same molecule?
The value was 5.86 and 5.90 and 5.73 and 5.26.

Which “Cumulative % at MIC” value ([1]; n=10, MIC 0.0625 µg/mL) does the source give for `C[C@@H](O)[C@H]1C(=O)N2C(C(=O)O)=C(S[C@@H]3CN[C@H](CNS(N)(=O)=O)C3)[C@H](C)[C@H]12` [Doripenem, doripenem] here?
Its value is 10%.

And the “Cumulative % at MIC” value ([1]; n=10, MIC 2 µg/mL)?
Its value is 30%.

And the “Cumulative % at MIC” value ([1]; n=10, MIC 128 µg/mL)?
Its value is 60%.

And the “Cumulative % at MIC” value ([1]; n=10, MIC 256 µg/mL)?
Its value is 100%.

What about the “Cumulative % at MIC” value ([1]; n=10, MIC […]) of the same molecule?
Its value is 20%.

What does the source list for colistin?
Cumulative % at MIC [1]: 50% and 70% and 100%; MIC inhibiting all strains ([1]; all 10 isolates): 4 mg/L
